The test system of one series is K562 cell line. In words: MTT assay: cytotoxicity against the K562 cell line. It counts as cell-based. The settings on record: Homo sapiens, K562 cells, 72 h, growth inhibition. In short, it runs like this:
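Fifteen thousand K562 cells per well were exposed in triplicate to a compound dilution series for 72 h at 37 °C, 5% CO2. Viability was measured by MTT absorbance at 550 nm relative to untreated control, and IC50 was obtained by nonlinear regression.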
(Formazan colour is commonly taken as a measure of viable cells.)

The next series concerns the target T1, purified tubulin (Sus scrofa, UniProt P02550+P02554).
T1 construct: purchased Cytoskeleton #BK006P
In words: Tubulin polymerisation assay (CytoDYNAMIX Screen kit, absorbance at 340 nm). It is filed as biochemical. The settings on record: for inhibition at 5 µM: 5 μM compound, 4 mg/ml tubulin, read-out: % Inhibition of tubulin polymerization at 5 μM; for pIC50: tubulin polymerization. As for the experimental part:
The polymerization of purified tubulin was monitored spectrophotometrically by the change in absorbance at 340 nm using the CytoDYNAMIX Screen kit (#BK006P, Cytoskeleton) according to the instructions of the manufacturer. […] The absorbance was measured at 1 minute intervals for 60 minutes. The test compound was added to a 4 mg/ml tubulin solution containing 10% glycerol and 1 mM GTP in Buffer 1 (Buffer 1: 80 mM PIPES; 2 mM MgCl2; 0.5 mM EGTA, pH 6.9). Increased absorbance indicates increase in microtubule formation from tubulin heterodimers.

Series [1] addresses T2, colchicine site on tubulin (biotinylated porcine tubulin) (Sus scrofa, UniProt P02550+P02554).
T2 construct: biotin (chemical label)
The experiment in a line: Tubulin displacement assay (3H-colchicine radioligand binding, SPA). The protocol: The assay was developped following the method published by Tahir et al. (2001) and others using biotinylated porcine tubulin captured to streptavidin coated yttrium silicate scintillation proximity assay (YSi SPA) beads in a PIPES/EGTA/MgCl2/GTP buffer. […] IC50s were determined using GraphPad Prism Version 5.01 and the sigmoidal dose response with variable slope curve fit.

In series [2] the test system is Endothelial cells (HUVEC). In words: Neovessels formation inhibition (capillary tube formation on Matrigel). It is filed as cell-based. The settings on record: Homo sapiens; for pIC50: HUVEC on Matrigel, compounds overnight; for IC50: HUVEC. The protocol:
The capability of compounds to inhibit the formation of capillaries was evaluated in vitro. Twenty thousand Endothelial cells (HUVEC) were placed on a Matrigel matrix and allowed to form capillary tubes in the presence or absence of the compounds overnight. The cells were stained with calcein AM, and the effect of the compounds on capillary tube formation was assessed using an inverted fluorescent microscope (Nikon). The reference compound used in this assay AVE-8063 is 3-amino-deoxycombretastatin A-4.

The subject of another series is HUVEC. In words: Pre-established vessels disruption (capillary tubes on Matrigel). It is filed as cell-based. The settings on record: Homo sapiens, HUVEC tubes formed 5 hours, then compounds overnight. The protocol:
To explore the effect of the compounds on pre-established vasculature, twenty thousand cells (HUVEC) were seeded and incubated over Matrigel for 5 hours to allow the capillary tubes to form. Then, compounds were added and incubated overnight. The disappearance of existing vasculature was monitored with fluorescent microscopy.

The next series concerns blood flow. The conditions noted are these: animal studies, cited from earlier work.
For series [3] the following is noted: phase 1 studies, cited from earlier work.
Setting [4] is: competition with 50 nM [3H]-colchicine, 4 h at 37° C., read-out: IC50.
Where [5] appears, read: read-out: Neovessels Formation Inhibition Number of Branch Junctions IC50.
Where [6] appears, read: read-out: Neovessels Formation Inhibition Total Tubule Length IC50.
[7] abbreviates: read-out: Pre-established Vessels Disruption Number of Branch Junctions IC50.
Setting [8] is: read-out: Pre-established Vessels Disruption Total Tubule Length IC50.

pIC50: −log10 of the molar value. Structures can show the parent of a compound that is named as a salt. Where two headings read alike, the source gives them in different places.

T1 sequence (P02554 whole entry): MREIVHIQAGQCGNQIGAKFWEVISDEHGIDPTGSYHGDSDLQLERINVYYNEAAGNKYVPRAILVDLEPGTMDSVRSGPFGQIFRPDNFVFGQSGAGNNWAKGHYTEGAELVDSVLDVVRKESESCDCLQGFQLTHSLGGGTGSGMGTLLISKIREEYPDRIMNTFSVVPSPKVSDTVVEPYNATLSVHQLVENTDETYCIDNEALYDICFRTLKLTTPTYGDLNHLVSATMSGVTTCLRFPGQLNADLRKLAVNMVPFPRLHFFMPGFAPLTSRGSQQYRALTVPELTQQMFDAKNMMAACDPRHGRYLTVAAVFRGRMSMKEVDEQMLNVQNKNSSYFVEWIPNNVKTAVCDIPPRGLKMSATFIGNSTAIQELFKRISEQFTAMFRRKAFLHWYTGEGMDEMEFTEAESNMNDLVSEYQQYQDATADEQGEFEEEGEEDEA
T1 sequence (P02550 whole entry): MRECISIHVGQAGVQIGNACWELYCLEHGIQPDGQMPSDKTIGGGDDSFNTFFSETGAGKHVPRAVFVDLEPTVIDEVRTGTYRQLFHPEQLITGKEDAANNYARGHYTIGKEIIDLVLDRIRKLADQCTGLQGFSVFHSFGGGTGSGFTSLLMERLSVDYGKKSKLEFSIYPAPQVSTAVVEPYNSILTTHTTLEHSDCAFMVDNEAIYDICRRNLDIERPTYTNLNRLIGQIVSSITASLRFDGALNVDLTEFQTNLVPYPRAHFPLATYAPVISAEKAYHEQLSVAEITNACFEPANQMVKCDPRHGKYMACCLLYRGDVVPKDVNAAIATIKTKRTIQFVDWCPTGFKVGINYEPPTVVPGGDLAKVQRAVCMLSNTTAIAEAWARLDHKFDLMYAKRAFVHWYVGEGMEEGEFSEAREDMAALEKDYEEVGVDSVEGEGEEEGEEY
T2 sequence (P02554 whole entry): as the sequence (P02554 whole entry) above
T2 sequence (P02550 whole entry): as the sequence (P02550 whole entry) above

One may read the pIC50 as the IC50 on a negative log10 scale, so that one unit is a factor of ten. A word on the inhibition: it is the change of the read-out against control, counted positive when it falls. For `CCOc1ccc2c(C(=O)c3cc(OC)c(OC)c(OC)c3)cncc2c1O` [Compound 97, (7-Ethoxy-8-hydroxyisoquinolin-4-yl)(3,4,5-trimethoxyphenyl)methanone hydrochloride], the pIC50 in the series on K562 cell line was 8.31; in series [1] (setting [4]) it was 7.38; in series [2] (setting [5]), 8.39; in series [2] (setting [6]), 8.26; in the series on HUVEC (setting [7]), 8.18; with HUVEC (setting [8]), 8.05. Moreover, on purified tubulin, the inhibition at 5 µM is 4%.
On to `CCOc1ccc2c(Cc3cc(OC)c(OC)c(OC)c3)cncc2c1N` [Compound 3, 7-Ethoxy-4-(3,4,5-trimethoxybenzyl)isoquinolin-8-amine dihydrochloride], for which the pIC50 is 7.97 in the series with K562 cell line; 5.98 on purified tubulin; 6.77 in series [1] (setting [4]); 7.82 in series [2] (setting [5]); 7.66 in series [2] (setting [6]); 7.83 in the series with HUVEC (setting [7]). Further, the pIC50 in the series on HUVEC (setting [8]) was 7.34. The inhibition at 5 µM at purified tubulin is 76.6%.
Consider `CCOc1ccc2c(C(=O)c3cc(OC)c(OCC)c(OC)c3)cncc2c1NS(N)(=O)=O` [Compound 59, 7-Ethoxy-4-(4-ethoxy-3,5-dimethoxybenzoyl)isoquinolin-8-yl sulfamide], for which the pIC50 with K562 cell line was 8.15; in series [1] (setting [4]) it was 6.13; in series [2] (setting [5]) it was 8.08; in series [2] (setting [6]), 7.60; with HUVEC (setting [7]), 7.57; with HUVEC (setting [8]), 7.42. Besides, at purified tubulin, the inhibition at 5 µM is 21.5%.
One may read the IC50 as the concentration needed to halve the response being measured. As to `CCOc1ccc2c(C(=O)c3cc(OC)c(OC)c(OC)c3)cncc2c1OP(=O)(O)O` [Compound 98, 7-ethoxy-4-(3,4,5-trimethoxybenzoyl)isoquinolin-8-yl disodium phosphate], the pIC50 with K562 cell line was 8.12; in series [1], 6.92; in the series on HUVEC (setting [7]), 8.04; with HUVEC (setting [8]) it was 7.82. For the same compound, the inhibition at 5 µM at purified tubulin was 49%. Moreover, the IC50 is 3.68 nM in series [2] (read-out: Neovessels Formation Inhibition Number of Branch Junctions IC50 (nM)) and 6.5 nM in series [2] (read-out: Neovessels Formation Inhibition Total Tubule Length IC50 (nM)).
As to `CCCOc1c(OC)cc(C(=O)c2cncc3c(O)c(OCC)ccc23)cc1OC` [Compound 67, (3,5-Dimethoxy-4-propoxyphenyl)(7-ethoxy-8-hydroxyisoquinolin-4-yl)methanone hydrochloride], the pIC50 in the series with K562 cell line was 8.33; in series [1] (setting [4]), 7.41; in series [2] (setting [5]), 8.42; in series [2] (setting [6]), 8.32; with HUVEC (setting [7]), 8.04; with HUVEC (setting [8]), 7.90. Besides, on purified tubulin, the inhibition at 5 µM is 10%.
`COc1cc(Cc2cncc3c(OC)c(OC)ccc23)cc(OC)c1OC` [Compound 10, 4-(3,4,5-Trimethoxybenzyl)-7,8-dimethoxyisoquinoline hydrochloride]: the pIC50 in the series on K562 cell line was 6.55; at purified tubulin, 5.46; in series [1] (setting [4]) it was 5.80.
On to `COc1ccc(/C=C\c2cc(OC)c(OC)c(OC)c2)cc1OP(=O)([O-])[O-].[Na+].[Na+]` [CA4P, CA-4 disodium phosphate], for which the “blood flow decrease in heart, kidney, and intestine” value with blood flow (heart, kidney, intestine) was “no significant decrease”. The “blood flow reduction in spleen, skeletal muscle, and brain” value in the series on blood flow (spleen, skeletal muscle, brain) was “less than 7 fold”. In addition, the “blood flow reduction in the tumor” value in the series on blood flow (tumor) was 100 fold. Besides, the dose-limiting toxicities entry in series [3] (administered intravenously) was “dyspnea, neurological disturbances (syncope, motor neuropathy, ataxia), and cardiac and intestinal ischemia”. Moreover, the “Responses seen in” value in series [3] is “thyroid cancer, sarcoma, and adrenocortical carcinoma”.
With `CCOc1ccc2c(C(=O)c3cc(OC)c(OC)c(OC)c3)cncc2c1OC(C)=O` [Compound 96, 7-Ethoxy-4-(3,4,5-trimethoxybenzoyl)isoquinolin-8-yl acetate], the pIC50 in the series on K562 cell line is 8.23; in series [1] (setting [4]) it was 5.48; in series [2] (setting [5]), 8.29; in series [2] (setting [6]), 8.09; with HUVEC (setting [7]), 8.04; with HUVEC (setting [8]) it was 7.82. Further, the inhibition at 5 µM at purified tubulin was 54.5%.
As to `CCOc1ccc2c(C(=O)c3cc(OC)c(OCC)c(OC)c3)cncc2c1OS(N)(=O)=O` [Compound 57, 7-Ethoxy-4-(4-ethoxy-3,5-dimethoxybenzoyl)isoquinolin-8-yl sulfamate], the pIC50 is 8.57 in the series with K562 cell line; 7.04 in series [1] (setting [4]); 8.58 in series [2] (setting [5]); 8.40 in series [2] (setting [6]); 8.36 in the series with HUVEC (setting [7]); 8.17 in the series with HUVEC (setting [8]). Further, the inhibition at 5 µM on purified tubulin came to 17%.
Consider `CCOc1ccc2c(Cc3cc(OC)c(OC)c(OC)c3)cncc2c1O` [Compound 1, 4-(3,4,5-Trimethoxybenzyl)-7-ethoxyisoquinolin-8-ol hydrochloride], for which the pIC50 in the series with K562 cell line is 7.54; on purified tubulin, 5.92; in series [1] (setting [4]), 6.66; in series [2] (setting [5]) it was 7.41; in series [2] (setting [6]) it was 7.26. Further, the inhibition at 5 µM on purified tubulin was 85%.
